Results: US10925884B2, “Methods of diagnosing and treating hepatocellular carcinoma” (MacKay Memorial Hospital, priority 2017, dated 2021)

Legend:
[1] = tested on: phosphorylated ERK (p-ERK); assay: Western blot analysis of p-ERK in Mahlavu cells; format: cell-based, Human; conditions: Mahlavu cells after trilostane treatment, FIG. 3
Experimental: (§1) Total cellular proteins were extracted, quantified, and subject to gel electrophoresis. Whole-cell lysates were isolated from Mahlavu cells. Equal amounts of proteins (40 μg/lane) were electrophoresed in 10% sodium dodecyl sulfatepolyacrylamide gel. The transferred membrane was blocked with 5% defatted milk and immunoblotted with primary antibodies against various proteins, including ERK (total form), p-ERK, p-AKT, E-cadherin, N-cadherin, Snail1, Twist, Vimentin, MLC II (total form), p-MLC II, ROCK, and GAPDH at room temperature for 3 hours. The antigen-antibody complexes were visualized with by chemiluminescence with the Amersham ECL detection system (GE Healthcare, Piscataway, N.J.).

[2] = tested on: Hep3B cells; assay: Wound healing assay, Hep3B cells; format: cell-based, Human; conditions: 24 hours, FIG. 2D
Experimental: (§2) Human HCC cancer cell lines (including Mahlavu, Hep3B, and Huh7) were cultured in Dulbecco's modified Eagle medium (DMEM), supplemented with 10% (v/v) fetal bovine serum and antibiotics (100 units/mL penicillin, 100 μg/mL streptomycin, and 2.5 μg/mL amphotericin B). All cell lines have been periodically authenticated by short tandem repeat analysis at Bioresource Collection and Research Center, Hsinchu, Taiwan (R.O.C.) and tested for being mycoplasma free. Trilostane was purchased from LKT Laboratories, St. Paul, Minn. Mahlavu and Hep3B cells (2×10^5 cells/well) were seeded into 6-well plates and grown to confluence overnight. A wound was made by scraping with a sterilized 200-μL pipette tip in the middle of the cell monolayer, and the cells were allowed to migrate to the denuded area for 24 hours. The percentage of wound closure was measured using Olympus IX71 light microscope (Olympus, Tokyo, Japan).

[3] = tested on: Mahlavu cells; assay: In vivo xenograft model of HCC; conditions: Mahlavu xenograft in BALB/c nude mice, 30 or 60 mg/kg intraperitoneally every day for 18 days; FIG. 4
Experimental: All animal experiments were approved by the Institutional Animal Care and Use Committee of MacKay Memorial Hospital (Taiwan, R.O.C.). 6-week-old male BALB/c nude mice were injected subcutaneously with 1.0×10^7 Mahlavu cells into the bilateral back pad. When the tumor growth reached 50 mm^3, mice were randomly divided into three groups (n=5 mice each group): (1) low-dose group, in which 30 mg/kg of trilostane was intraperitoneally administered to the mouse every day for 18 days; (2) high-dose group, in which 60 mg/kg of trilostane was intraperitoneally administered to the mouse every day for 18 days; and (3) control group, in which vehicle control (Dimethyl sulfoxide, DMSO) of the same volume was intraperitoneally administered to the mouse every day for 18 days. The tumor volume was measured twice a week by the same investigator, and mice were sacrificed when tumors reached 10% of body weight.

[4] = tested on: Mahlavu cells; assay: Colony forming assay, Mahlavu cells; format: cell-based, Human; conditions: various dosage of trilostane, 10 to 13 days, FIG. 2A
Experimental: (§3) Human HCC cancer cell lines (including Mahlavu, Hep3B, and Huh7) were cultured in Dulbecco's modified Eagle medium (DMEM), supplemented with 10% (v/v) fetal bovine serum and antibiotics (100 units/mL penicillin, 100 μg/mL streptomycin, and 2.5 μg/mL amphotericin B). All cell lines have been periodically authenticated by short tandem repeat analysis at Bioresource Collection and Research Center, Hsinchu, Taiwan (R.O.C.) and tested for being mycoplasma free. Trilostane was purchased from LKT Laboratories, St. Paul, Minn. A total of 500 Mahlavu or Hep3B HCC cancer cells were seeded into 6-well plate and treated with various dosage of trilostane. The medium was replaced every 3 days. After 10 to 13 days, colonies were stained with 3% crystal violet and examined by microscopy. Colonies containing at least 50 individual cells were counted.

[5] = tested on: Hep3B cells; assay: Colony forming assay, Hep3B cells; format: cell-based, Human; conditions: various dosage of trilostane, 10 to 13 days, FIG. 2B
Experimental: as §3

[6] = tested on: phosphorylated MEKK1 (p-MEKK1); assay: Western blot analysis of p-MEKK1 in Mahlavu cells; format: cell-based, Human; conditions: Mahlavu cells after trilostane treatment, FIG. 3
Experimental: as §1

[7] = tested on: mahlave cells; assay: Transwell migration assay; format: cell-based, Human; conditions: FIG. 2E
[8] = tested on: Mahlavu cells; assay: Wound healing assay, Mahlavu cells; format: cell-based, Human; conditions: 24 hours, FIG. 2C
Experimental: as §2

## C[C@]12CC[C@H]3[C@@H](CC[C@@]45O[C@@H]4C(O)=C(C#N)C[C@]35C)[C@@H]1CC[C@@H]2O [trilostane]
[1]
  expression of phosphorylated ERK (p-ERK): down-regulated
[2]
  wound closure: significantly inhibited the wound closure
[3]
  tumor growth rate: significantly suppressed
[4]
  colony numbers: decreased colony numbers
[5]
  colony numbers: decreased colony numbers
[6]
  expression of phosphorylated MEKK1 (p-MEKK1): down-regulated
[7]
  cell migration: inhibitory effect
[8]
  wound closure: significantly inhibited the wound closure
